Key:
D(2) dopamine receptor [1] = target: T1, D(2) dopamine receptor (Homo sapiens, UniProt P14416); assay: Partial agonist activity at Dopamine D2 receptor (unknown origin) expressed in HEK293T coexpressing beta-arrestin-2 assessed as increase in cAMP accumulation incubated for 5 mins by beta-arrestin recruitment based BRET assay; assay type: functional, cell-based
D(2) dopamine receptor [2] = target: T1, D(2) dopamine receptor; assay: Partial agonist activity at Dopamine D2 receptor (unknown origin) expressed in HEK293T co-expressing G-alphai assessed as increase in cAMP accumulation incubated for 5 mins by BRET assay; assay type: functional, cell-based
D(2) dopamine receptor [3] = target: T1, D(2) dopamine receptor; assay: Displacement of [3H]N-methylspiperone from Dopamine D2 receptor (unknown origin) expressed in HEK293T cell membrane incubated for 2 hrs by radioligand competitive binding based MicroBeta TriLux reader method; assay type: cell membranes
[4] = Drug concentration in C57BL/6J mouse brain at 5 mg/kg,ip measured at 0.5 hrs by LC-MS analysis; assay type: ADME, organism-based; conditions: read-out: Ct
[5] = Ratio of drug concentration in brain to plasma in C57BL/6J mouse at 5 mg/kg,ip measured at 2 hrs by LC-MS analysis; assay type: ADME, organism-based; conditions: read-out: BPR
[6] = Drug concentration in C57BL/6J mouse plasma at 5 mg/kg,ip measured at 2 hrs by LC-MS analysis; assay type: ADME, organism-based; conditions: in vivo
[7] = Ratio of drug concentration in brain to plasma in C57BL/6J mouse at 5 mg/kg,ip measured at 0.5 hrs by LC-MS analysis; assay type: ADME, organism-based; conditions: read-out: BPR
[8] = Drug concentration in C57BL/6J mouse brain at 5 mg/kg,ip measured at 2 hrs by LC-MS analysis; assay type: ADME, organism-based; conditions: read-out: Ct
[9] = Drug concentration in C57BL/6J mouse plasma at 5 mg/kg,ip measured at 0.5 hrs by LC-MS analysis; assay type: ADME, organism-based; conditions: in vivo

T1 sequence (P14416 whole entry): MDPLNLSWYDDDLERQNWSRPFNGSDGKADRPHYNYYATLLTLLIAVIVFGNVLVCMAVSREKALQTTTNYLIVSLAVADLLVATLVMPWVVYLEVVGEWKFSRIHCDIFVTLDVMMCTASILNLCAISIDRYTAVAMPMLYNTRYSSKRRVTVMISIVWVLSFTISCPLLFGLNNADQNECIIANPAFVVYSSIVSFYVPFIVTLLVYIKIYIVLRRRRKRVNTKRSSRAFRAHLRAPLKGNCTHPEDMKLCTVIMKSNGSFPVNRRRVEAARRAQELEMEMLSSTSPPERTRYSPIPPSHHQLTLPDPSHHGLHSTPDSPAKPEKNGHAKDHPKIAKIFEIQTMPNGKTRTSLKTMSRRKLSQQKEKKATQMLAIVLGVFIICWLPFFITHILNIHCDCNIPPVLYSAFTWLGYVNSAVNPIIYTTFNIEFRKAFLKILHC

SMILES | EC50 (D(2) dopamine receptor [1]; read-out: EC50) [nM] | EC50 (D(2) dopamine receptor [2]; read-out: EC50) [nM] | Ki (D(2) dopamine receptor [3]; read-out: Ki) [nM] | Ki (D(2) dopamine receptor [3]; read-out: pKi (converted)) [nM] | other results
COc1cccc2c3c(oc12)CN(C/C=C/COc1ccc2ccc(=O)[nH]c2c1)CC3 | 23 | – | – | – | –
COc1cccc2c3c(oc12)CN(CCCCOc1ccc2c(c1)NC(=O)C2)CC3 | 1340 | 869 | 3190 | 3240 | EC50 (D(2) dopamine receptor [1]; read-out: pEC50 (converted)): 1410 nM
CCOc1cccc2c3c(oc12)CN(CCCCOc1ccc2ccc(=O)[nH]c2c1)CC3 | – | – | – | – | EC50 (D(2) dopamine receptor [2]; hek293t): Not Active
CCOc1cccc2cc(CNCC[C@H]3CC[C@H](NC(=O)C4CC4)CC3)oc12 | 4.08 | 6.8 | 62.8 | – | –
CCOc1cccc2cc(CNCCCCOc3ccc4c(c3)NC(=O)CC4)oc12 | – | – | – | – | concentration at 0.5 h [4]: 168 ng/mL; Kp at 2 h [5]: 0.113; Cp [6]: 53.8 ng/mL; Kp at 0.5 h [7]: 0.142; concentration at 2 h [8]: 6.05 ng/mL
CCOc1cccc2cc(CNCCCOc3ccc4c(c3)NC(=O)CC4)oc12 | 12.2 | 30.4 | 109 | – | –
CCOc1cccc2cc(CNCCCCOc3ccc4oc(C)nc4c3)oc12 | 125 | 2670 | 935 | 955 | EC50 (D(2) dopamine receptor [1]; read-out: pEC50 (converted)): 135 nM
CCOc1cccc2cc(CNCCCCOc3ccc4ccc(=O)[nH]c4c3)oc12 | 0.22 | 0.13 | 0.12 | 0.129 | concentration at 0.5 h [4]: 48.3 ng/mL; Kp at 2 h [5]: 0.109; Cp [6]: 53.1 ng/mL; Kp at 0.5 h [7]: 0.061; concentration at 2 h [8]: 5.76 ng/mL; EC50 (D(2) dopamine receptor [2]; read-out: pEC50 (converted)): 0.123 nM; Cp [9]: 792 ng/mL
O=C1CCc2ccc(OCCCCNCc3cc4ccccc4o3)cc2N1 | 7.29 | 53.7 | 582 | – | –
COc1cccc2cc(CNCCCOc3ccc4ccc(=O)[nH]c4c3)sc12 | 20.5 | 270 | 181 | – | –
COc1cccc2cc(CNCCCCOc3ccc4c(c3)NC(=O)CC4)oc12 | 2.01 | 5.16 | 33.3 | 33.9 | concentration at 0.5 h [4]: 60.7 ng/mL; Kp at 2 h [5]: 0.384; Cp [6]: 10.7 ng/mL; Kp at 0.5 h [7]: 0.183; concentration at 2 h [8]: 4.1 ng/mL; Cp [9]: 331 ng/mL
